Assay [1] has as its system U-937. Description: Decrease in basal TNFalpha release in human U937 cells after 1 hr by ELISA. The assay is classed as functional, cell-based. On the technique in general: In an ELISA, binding on a coated surface is turned into a signal by an enzyme label.
The test system of assay [2] is U-937. Description: Decrease in LPS-induced TNFalpha release in human U937 cells after 1 hr by ELISA. The format is functional, cell-based.
The test system of assay [3] is U-937. Kind of assay: Inhibition of basal TNFalpha release in human U937 cells at 2 uM after 1 hr by ELISA. The assay is classed as functional, cell-based.
Assay [4] deals with U-937. Description: Inhibition of LPS-induced TNFalpha release in human U937 cells at 2 uM after 1 hr by ELISA. The assay is classed as functional, cell-based.
The subject of assay [5] is Mast cell. Kind of assay: Inhibition of antigen-induced IL6 secretion in mouse mast cells at 1 uM after 24 hrs by ELISA. The assay is classed as functional, cell-based.
The species entered for assay [6] is Homo sapiens. Kind of assay: Inhibition of antigen-induced histamine release in human basophils at 1 uM after 30 mins. The format is functional.
Assay [7] deals with BMMC. Description: Inhibition of antigen-induced histamine release in wild-type BMMCs at 1 uM after 30 mins. The format is functional, cell-based. To be noted: Mus musculus.
In assay [8] the test system is BMMC. Description: Inhibition of antigen-induced histamine release in Tec-deficient BMMC at 1 uM after 30 mins. The format is functional, cell-based. To be noted: Mus musculus.

Active and inactive are the calls of the source. The calls are words filed in the database; no cut-off is given here.

For the molecule `Cc1nc(Nc2ncc(C(=O)Nc3c(C)cccc3Cl)s2)cc(N2CCN(CCO)CC2)n1`, the outcome in assay [1], in assay [2], in assay [5], in assay [6], in assay [7] and in assay [8] was Active. In addition, the outcome in assay [3] and in assay [4] was inactive.
